Measured values: patent US20250213744A1, “ANTIMICROBIAL HYDROGEL COMPOSITION” (priority 2022, published 2025)
Several values for one entry are separate records, joined by “and”; a condition that tells them apart may be missing. Equal entries are not always repeated. Entries after “also recorded” stand apart in the source; their conditions may differ.

Experiments:
P. aeruginosa (PAO1) = assay: Modified Kirby-Bauer test, zone of inhibition; format: cell-based, Pseudomonas aeruginosa; settings: for Ratio of bacterial zone of inhibition following application of plasma jet to antimicrobial loaded gel over non-plasma activated gel: antimicrobial loaded PAA/PVA composite gel
Excerpt: (§1) The Ar-CAP jet shown in FIG. 14 consisted of an internal steel needle electrode (outer diameter=0.9 mm, inner diameter=0.6 mm, length 51 mm) sealed inside a quartz tube (inner diameter=1.5 mm, outer diameter=3 mm). Two external copper electrodes of length 4 mm 5.6 cm from electrode, spaced 5.4 cm apart and 6.6 cm from the bottom of the tube. Ar gas was kept at 1.0 standard litres per minute (SLPM) and generated at 10 kV at 23.5 kHz. Voltage and current waveforms were monitored using oscilloscope. The gap distance was 1.5 cm and the Ar-CAP jet was stationary unless otherwise stated. 31
(§2) Bacterial overnight was made as outlined, subcultures were made in fresh MH broth absorbance corrected to OD 0.5 (˜[…] CFU/mL). 100 μL was added to Muller-Hinton agar to and spread to create a bacterial lawn. Gel discs were placed in the centre of the plate and either treated with Ar-CAP or left untreated. Plates were incubated at 37° C. for 18 h, facing up to prevent the gel from moving. Zone of inhibition (ZOI) was measured and corrected to the diameter of the gel.
(§3) The Kirby-Bauer (KB) test is a standard test used to assess the susceptibility of bacteria to different antimicrobials by measuring the zone of bacterial growth inhibition (ZOI) due to the out diffusion of the antimicrobial agent from a sterile disc soaked in that compound. In this case, a modified form of the KB test was performed. Plasma activate antimicrobial loaded, composite hydrogels were compared to non-activated antimicrobial loaded, composite hydrogels and non-loaded, composite hydrogels with and without plasma activation.

[1] = Passive leaching of antimicrobial from PAA composite gel, judged qualitatively from ZOI data; settings: without CAP; judged from ZOI and ZOI ratios
Excerpt: The variation in bacterial susceptibility to the plasma jet applied to the unloaded gel is interesting and is thought to related to the varying susceptibility of different species to the RONS generated by the CAP. Sensitivity to different antimicrobials varied as a function of both the antimicrobial moiety and the bacterial species. In this case, P. aeruginosa is seen to be sensitive to Ag^+ passively leaching from the composite gel, while S. aureus and E. faecalis are not.
Relative passive leaching of different antimicrobials can be qualitatively assessed by looking at FIG. 5-7. The difficulty in cross comparison of the different antimicrobial susceptibility of the bacterial species to the various antimicrobials tested. The key comparison here is to look at the ratio of ZOI of the antimicrobial loaded composite gel (1st column in graphs below) to the zone of inhibition for the same loaded gel following application of the CAP jet 2nd column).

E. faecalis (JH2-2) = assay: Modified Kirby-Bauer test, zone of inhibition; format: cell-based, Enterococcus faecalis; settings: for Ratio of bacterial zone of inhibition following application of plasma jet to antimicrobial loaded gel over non-plasma activated gel: antimicrobial loaded PAA/PVA composite gel
Excerpt: as §1, §2, §3

S. aureus (H560) = assay: Modified Kirby-Bauer test, zone of inhibition; format: cell-based, Staphylococcus aureus; settings: for Ratio of bacterial zone of inhibition following application of plasma jet to antimicrobial loaded gel over non-plasma activated gel: antimicrobial loaded PAA/PVA composite gel
Excerpt: as §1, §2, §3

[2] = Ninhydrin assay, gentamicin release from PAA/PVA composite hydrogel with and without Ar-CAP jet; format: physicochemical
Description: 0.1 g of the drug loaded PAA powder was mixed with dry PVA (5% (w/v)) to obtain a homogenous powder and then is dissolved at 95° C. for 1 h. 20 ml of the PAANaPA/PVA solution was then added to a […] diameter petri dish and spread evenly. The gels were placed into a −20° C. freezer until frozen and removed and defrosted at 25° C. this process was repeated twice more to enable cryo-crosslinking of the PVA.
The Ar-CAP jet shown in FIG. 14 consisted of an internal steel needle electrode (outer diameter=0.9 mm, inner diameter=0.6 mm, length 51 mm) sealed inside a quartz tube (inner diameter=1.5 mm, outer diameter=3 mm). […] Voltage and current waveforms were monitored using oscilloscope. […]
Aminoglycoside was made up in pH 7.4 assay buffer (39.1 mL 0.2 M sodium hydroxide solution was added to 50 mL 0.2 M monobasic potassium phosphate solution and made up to a final volume of 200 mL with DI H2O) to starting concentration of 1 mg/mL. […] 200 μL was aliquoted into a round bottom 96-well plate and the absorbance was read at 560 nm (Clariostar, Omega). […]
Gentamicin is an aminoglycoside antibiotic used both systemically and topically. […] Ninhydrin was used to quantify release of gentamicin both prior to CAP treatment (passive release) and following CAP treatment. […] The Ninhydrin assay was used to quantify release of gentamicin with (triggered release) and without CAP treatment (passive release).

[3] = two secondary amine groups; net positive charge at pH 7; cited from earlier work
[4] = test system: clinical strains of S. aureus; settings: many clinical strains of S. aureus; cited from earlier work
[5] = test system: clinical strains of P. aeruginosa; settings: many clinical strains of P. aeruginosa; cited from earlier work

| Molecule | Ratio of bacterial zone of inhibition following application of plasma jet to antimicrobial loaded gel over non-plasma activated gel (P. aeruginosa (PAO1)) | sensitivity to antimicrobial passively leaching from the composite gel (P. aeruginosa (PAO1); no CAP) | passive release / leaching from the PAA composite gel (qualitative) [1] | sensitivity to antimicrobial passively leaching from the composite gel (E. faecalis (JH2-2); E. faecalis, no CAP) | Ratio of bacterial zone of inhibition following application of plasma jet to antimicrobial loaded gel over non-plasma activated gel (E. faecalis (JH2-2); E. faecalis) | Ratio of bacterial zone of inhibition following application of plasma jet to antimicrobial loaded gel over non-plasma activated gel (S. aureus (H560)) | sensitivity to antimicrobial passively leaching from the composite gel (S. aureus (H560); no CAP) | sensitivity of E. faecalis compared with P. aeruginosa and S. aureus (E. faecalis (JH2-2); loaded composite gel) | gentamicin released from gel into the surrounding PBS (triggered release) ([2]; after two minutes treatment with Ar CAP jet) [mg/mL] | gentamicin passively released from gel ([2]; without CAP treatment) [mg/mL] | pka of secondary amine groups [3] | Minimal Inhibitory Concentration (MIC) [4] [µg/mL] | Minimal Inhibitory Concentration (MIC) [5] [µg/mL] |
| --- | --- | --- | --- | --- | --- | --- | --- | --- | --- | --- | --- | --- | --- |
| O=[N+]([O-])[O-].[Ag+] [Silver, Silver Nitrate] | 1.5 | sensitive | much greater degree of passive out-diffusion | are not | 6 | 7 | are not | – | – | – | – | – | – |
| Cetrimide | 2.7 | – | much greater degree of passive out-diffusion | – | 1.3 | 1.8 | – | less sensitive | – | – | – | – | – |
| Polymyxin B | 13 | – | relatively no passive release; also recorded: little passive leaching | – | >30 | 34 | – | – | – | – | – | – | – |
| gentamicin | 3.6 | – | little passive leaching | – | >10 | 8.2 | – | – | 61 | 1.1 | 8.8 and 9.9 | 2000 to 4000 | 2000 to 4000 |
